# Patent US11806393B2, “Flavivirus peptide sequences, epitopes, and methods and uses thereof” (priority 2017, dated 2023)
# How the values were obtained:
# Format in all cases: cell-based, mouse
# CD8+ T cells [1] = assay: IFNγ-ELISPOT of predicted H-2b-binding ZIKV peptides; conditions: CD8+ T cells of mice infected with MR766 or FSS13025, day 7; positive: SFC per 10^6 CD8+ T cells ≥20 and stimulation index ≥2
# Protocol: CD8^+ T cells were isolated by magnetic bead positive selection (Miltenyi Biotec, Germany). A total of 2×10^5 CD8^+ T cells were stimulated with 1×10^5 LPS-blast cells as antigen presenting cells (APCs) and 10 μg of individual ZIKV-derived peptide in 96-well flat-bottom plates (IMMOBILON™-P; Millipore, MA) coated with anti-mouse IFNγ monoclonal antibody (mAb) (clone AN18; Mabtech, Sweden) in triplicate. IFNγ-ELISPOT was performed as previously detailed (Elong Ngono et al., 2016). Positive peptides were those with a number of spot-forming cells (SFC) per 10^6 CD8^+ T cells ≥20 and a stimulation index ≥2 based on the negative control (DMSO). […]
# The following results are with reference to FIG. 3A and FIG. 3B, where five-week-old LysMCre^+IFNAR^fl/fl were infected retro-orbitally with 10^4 FFU of ZIKV MR766 or FSS13025. […] A total of 244 peptides from ZIKV strains predicted to bind H-2Kb and H-2db with high affinity were screened. Two independent experiments for each ZIKV strain (n=5 mice for each experiment) were performed in triplicate per peptide. The data are expressed as the mean of spot forming cells (SFC) per 10^6 CD8^+ T cells, and error bars are represented as SEM. One-way ANOVA was used to compare the mean of each peptide with the control (DMSO) ([…]). […] The dotted line corresponds to the average amount of IFNγ produced by MOCK mice when stimulated with positive ZIKV-derived peptides (0.19% of IFNγ+CD8^+ T cells).
# CD8+ T cells [2] = assay: IFNγ ELISPOT, ZIKV-infected Ifnar-/- HLA-B*0702 transgenic mice; conditions: HLA-B*0702 mice; for SFC/10^6 CD8+ T cells, MR766: 7 days after 1×10^2 FFU ZIKV MR766; for SFC/10^6 CD8+ T cells, FSS13025: 7 days after 1×10^2 FFU ZIKV FSS13025; for immunodominance in IFNγ ELISPOT: immunodominant: >500 SFCs/10^6 CD8+ T cells, shared by both ZIKV strains
# Protocol: (§1) Two ZIKV strains, MR766 (Uganda, 1947) and FSS13025 (Cambodia, 2010), were obtained from the World Reference Center for Emerging Viruses and Arboviruses (WRCEVA). The mouse-adapted DENV2 strain S221 is a triple-plaque purified clone derived from DENV2 D2S1038. Both ZIKV and DENV2 were amplified in C6/36 mosquito cells, and viral titers were measured using baby hamster kidney (BHK)-21 cell-based focus forming assay (FFA). For epitope screening, 5-week old mice (female or male) were infected retro-orbitally (R.O.) with either 1×102 FFU of ZIKV FSS13025 or ZIKV MR766, or 2×10^4 FFU of DENV2 S221 in 200 μl 10% FBS/PBS. Seven days after infection, CD8^+ T cells were isolated from splenocytes and used for ELISPOT assay, while the splenocytes were directly used for ICS assay. Additionally, 5-week old mice were inoculated I.P. with 2×10^3 FFU of DENV2 S221 for 4 weeks.
# CD8^+ T cells were isolated from splenocytes using magnetic bead positive selection (Miltenyi Biotec, Germany) 7 days after virus infection. 2×10^5 CD8^+ T cells were stimulated with 1×10^5 LPS-blasts loaded with 10 μg of individual peptide in 96-well flat-bottom plates (IMMOBILON™-P; Millipore, Bedford, Mass.) that were coated with anti-IFNγ mAb (clone AN18; Mabtech, Stockholm, Sweden) in triplicate. Concanavalin A (ConA) was used as positive control. After 20 hours of incubation, biotinylated anti-mouse IFNγ mAb (R4-6A2; Mabtech), followed by ABC peroxidase (Vector Laboratories, Burlingame, Calif., USA) and then 3-amino-9-ethylcarbazole (Sigma-Aldrich, St. Louis, Mo., USA) were added into the wells. […] A peptide inducing a magnitude of >500 SFCs/10^6 CD8^+ T cells was considered as an immunodominant peptide.
# Two independent experiments performed in triplicate were averaged and the error bars represent the SEM. The data are expressed as the mean number of spot forming cells (SFC) per 10^6 CD8^+ T cells. The criteria for positivity were net SFC per 10^6 cells of >20, and a stimulation index of >2.0 when compared with the negative control. Dotted lines represent the cutoff value. * Indicates a positive response. […] ConA denotes Concanavalin A.
# CD3+CD8+ T cells = assay: IFNγ ICS, ZIKV-infected Ifnar-/- HLA-B*0702 transgenic mice; conditions: for % IFNγ+ CD8+ T cells, MR766 / % IFNγ+ CD8+ T cells, FSS13025: HLA-B*0702 mice; for % IFNγ+ CD8+ T cells, MR766: 7 days after ZIKV MR766, ICS; for % IFNγ+ CD8+ T cells, FSS13025: 7 days after ZIKV FSS13025, ICS
# Protocol: as §1
# Spleens were harvested from virus-infected, mock-immunized, or peptide-immunized mice. 1×10^6 splenocytes were plated in each well of 96-well U-bottom plates and stimulated with individual peptide (10 μg crude peptide or 1 μg pure peptide per well) for 6 hours. Five hours before the end of incubation, Brefeldin A (GolgiPlug; BD Biosciences) and PE-conjugated anti CD107a mAb (clone 1D4B, eBioscience) were added to the cells. Splenocytes stimulated with PMA-ionomycin were used as the positive control, while cells without any stimulation were the negative control. […] Samples were run using an LSR™ II (BD Biosciences) and analyzed using FLOWJO™ software X 10.0.7 (Tree Star, Ashland, Oreg.).
# Data represent the average of two independent experiments and are expressed as mean±SEM. *, P<0.05; **, P<0.01; Two-tailed Mann-Whitney test. P/I denotes PMA/ionomycin.
Substance,"Strains (ZIKV strain for which the peptide induced a positive T cell response, IFNγ-ELISPOT) (CD8+ T cells [1])","SFC/10^6 CD8+ T cells, MR766 (CD8+ T cells [2]) [SFC/10^6 CD8+ T cells]","% IFNγ+ CD8+ T cells, MR766 (CD3+CD8+ T cells)",other results
1 (AAFTFTKV) [compound 1],MR766,–,–,–
2 (AAGAWYVYV) [compound 2],MR766,–,–,–
3 (ISFATTLGV) [compound 3],MR766,–,–,–
4 (MSYECPML) [compound 4],MR766,–,–,–
5 (PSVRNGNEI) [compound 5],MR766,–,–,–
6 (RAIWYMWL) [compound 6],MR766,–,–,–
7 (RQVMNIVSSWL) [compound 7],MR766,–,–,–
8 (SSIAARGYI) [compound 8],MR766,–,–,–
9 (SSLVNGVVRL) [compound 9],MR766,–,–,–
10 (SSWLWKEL) [compound 10],MR766,–,–,–
11 (TGWSNWEEV) [compound 11],MR766,–,–,–
12 (TTVSNMAEV) [compound 12],MR766,–,–,–
13 (VMIFLSTAV) [compound 13],MR766,–,–,–
14 (YSLECDPAVI) [compound 14],MR766,–,–,–
15 (AAFTFTKI) [compound 15],FSS,–,–,–
16 (SSLINGVVRL) [compound 16],FSS,–,–,–
17 (TLGMNKCYI) [compound 17],FSS,–,–,–
18 (IMVAVGLL) [compound 18],MR766/FSS,–,–,–
19 (ATMSYECPM) [compound 19],MR766/FSS,–,–,–
AAGKRGAAL [MR-NS3596-NS4A1],–,148,–,–

Substance,"Strains (ZIKV strain for which the peptide induced a positive T cell response, IFNγ-ELISPOT) (CD8+ T cells [1])","SFC/10^6 CD8+ T cells, MR766 (CD8+ T cells [2]) [SFC/10^6 CD8+ T cells]","% IFNγ+ CD8+ T cells, MR766 (CD3+CD8+ T cells)",other results
FPDSNSPINI (FPDSNSPIM) [FSS/MR-NS3309-317],–,565,(0.49%),"SFC/10^6 CD8+ T cells, FSS13025 (CD8+ T cells [2]): 335 SFC/10^6 CD8+ T cells"
GPCKVPAQMAV [FSS-E337-347],–,271,–,–
GPQRLPVPV [FSS/MR-NS199-107],–,103,–,–
IPYLGKREDL [FSS/MR-NS5587-596],–,438,(0.26%),"SFC/10^6 CD8+ T cells, FSS13025 (CD8+ T cells [2]): 178 SFC/10^6 CD8+ T cells"
LPILAALTPL [MR-NS2A141-150],–,540,(0.28%),–
LPSHSTRKL [FSS/MR-M4-12],–,398,(0.28%),"SFC/10^6 CD8+ T cells, FSS13025 (CD8+ T cells [2]): 235 SFC/10^6 CD8+ T cells"
RPAEGGKTVM [MR-NS5332-341],–,277,(0.35%),–
RPASAWAIYA [FSS/MR-NS4B35-44],–,180,(0.49%),–
RPEADKVAAI [FSS/MR-NS3492-501],–,157,–,–
RPRTTVVAENI [FSS/MR-NS5605-614],–,641,(0.55%),"SFC/10^6 CD8+ T cells, FSS13025 (CD8+ T cells [2]): 383 SFC/10^6 CD8+ T cells; % IFNγ+ CD8+ T cells, FSS13025 (CD3+CD8+ T cells): (0.22%)"
RPYKAAAAQL [FSS/MR-NS4A36-45],–,120,–,–
RVIDSRRCL [FSS/MR-NS3405-413],–,718,(0.4%),"SFC/10^6 CD8+ T cells, FSS13025 (CD8+ T cells [2]): 236 SFC/10^6 CD8+ T cells; % IFNγ+ CD8+ T cells, FSS13025 (CD3+CD8+ T cells): (0.23%)"
SPFGGLKRLPA [FSS-C25-35],–,–,–,"SFC/10^6 CD8+ T cells, FSS13025 (CD8+ T cells [2]): 802 SFC/10^6 CD8+ T cells; % IFNγ+ CD8+ T cells, FSS13025 (CD3+CD8+ T cells): (0.79%); simultaneous IFNγ and TNFα production by peptide-stimulated CD8+ T cells (CD3+CD8+ T cells; ZIKV FSS13025-infected mice): stimulated production of both IFNγ and TNFα"
SPQDNQMAI [FSS/MR-NS4A125-133],–,159,–,–
SPRAEATL [FSS/MR-E173-180],–,108,–,"SFC/10^6 CD8+ T cells, FSS13025 (CD8+ T cells [2]): 167 SFC/10^6 CD8+ T cells"
TPHWNNKEAL [FSS/MR-E233-242],–,218,(0.3%),"SFC/10^6 CD8+ T cells, FSS13025 (CD8+ T cells [2]): 158 SFC/10^6 CD8+ T cells"
TPLARGTL [FSS/MR-NS2A148-155],–,1055,(0.87%),"SFC/10^6 CD8+ T cells, FSS13025 (CD8+ T cells [2]): 706 SFC/10^6 CD8+ T cells; immunodominance in IFNγ ELISPOT (CD8+ T cells [2]): immunodominant; % IFNγ+ CD8+ T cells, FSS13025 (CD3+CD8+ T cells): (0.28%); simultaneous IFNγ and TNFα production by peptide-stimulated CD8+ T cells (CD3+CD8+ T cells; ZIKV MR766-infected mice): stimulated simultaneous production of IFNγ and TNFα"
TPLTLIVAIIL [FSS/MR-NS4B105-115],–,163,(0.4%),–
TPNSPRAEA [FSS/MR-E170-178],–,155,–,–
VPRTDNIAL [MR-NS2A133-141],–,776,(1.39%),"SFC/10^6 CD8+ T cells, FSS13025 (CD8+ T cells [2]): 648 SFC/10^6 CD8+ T cells; immunodominance in IFNγ ELISPOT (CD8+ T cells [2]): immunodominant; % IFNγ+ CD8+ T cells, FSS13025 (CD3+CD8+ T cells): (0.54%)"
